This passage reports EC50, solubility and IC50 results from ChEMBL document CHEMBL4420076, “Amylin and calcitonin receptor agonist” (2017).

Molecules are shown by their SMILES. Numbered stars: 1 amine (or outer) side, 2 acyl side, 3 side chain; on linkers, the order of the positions; unused ones are H or OH. Peptide text beside a SMILES is read from it. * marks the point of attachment. C20 diacid = O=C(O)CCCCCCCCCCCCCCCCCCC(=O)*; C18 diacid = O=C(O)CCCCCCCCCCCCCCCCC(=O)*; γGlu = O=C(O)[C@H](CCC(=O)[*:2])N[*:1]

Data set [1] addresses T1, Amylin receptor AMY3; CALCR/RAMP3 (Homo sapiens, UniProt O60896+P30988).
T1 sequence (P30988 whole entry): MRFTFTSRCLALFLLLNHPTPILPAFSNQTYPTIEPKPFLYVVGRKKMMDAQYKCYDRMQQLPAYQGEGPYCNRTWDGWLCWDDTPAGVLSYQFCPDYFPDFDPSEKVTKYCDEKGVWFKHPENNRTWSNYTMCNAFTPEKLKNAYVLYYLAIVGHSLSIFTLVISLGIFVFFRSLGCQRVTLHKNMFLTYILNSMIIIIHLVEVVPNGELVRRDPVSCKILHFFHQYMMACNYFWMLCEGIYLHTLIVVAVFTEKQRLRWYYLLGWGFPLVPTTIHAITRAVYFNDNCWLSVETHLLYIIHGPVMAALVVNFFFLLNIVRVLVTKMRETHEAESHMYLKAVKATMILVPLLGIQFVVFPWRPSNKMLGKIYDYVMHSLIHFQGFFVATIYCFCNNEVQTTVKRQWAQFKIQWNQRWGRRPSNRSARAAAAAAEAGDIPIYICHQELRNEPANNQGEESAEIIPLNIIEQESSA
T1 sequence (O60896 whole entry): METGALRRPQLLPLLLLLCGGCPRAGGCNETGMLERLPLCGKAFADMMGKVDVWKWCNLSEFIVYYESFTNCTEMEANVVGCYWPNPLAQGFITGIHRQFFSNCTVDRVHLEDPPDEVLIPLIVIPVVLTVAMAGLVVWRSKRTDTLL
The experiment in a line: Agonist activity at human amylin receptor expressed in BHK570 cells co-expressing RAMP3 assessed as increase in intracellular cAMP concentration incubated for 3 hrs in absence of albumin by CRE luciferase reporter gene assay. Format: functional, cell-based.

The target in data set [2] is T2, Calcitonin receptor (Homo sapiens, UniProt P30988).
T2 sequence (P30988 whole entry): T1 sequence (P30988 whole entry)
Nature of the data set: Agonist activity at human calcitonin receptor expressed in BHK570 cells assessed as increase in intracellular cAMP concentration incubated for 3 hrs in absence of albumin by CRE luciferase reporter gene assay. In kind it is functional, cell-based.

The target of data set [3] is T1, Amylin receptor AMY3; CALCR/RAMP3. The experiment in a line: Agonist activity at human amylin receptor expressed in BHK570 cells co-expressing RAMP3 assessed as increase in intracellular cAMP concentration incubated for 3 hrs in presence of 10% FBS by CRE luciferase reporter gene assay. In kind it is functional, cell-based.
A short description of data set [4]: Solubility in 100 mM glycylglycine buffer at pH 3.0 incubated for 18 hrs by UPLC analysis. Format: physicochemical.
The nature of data set [5]: Solubility in 100 mM glycylglycine buffer at pH 4.0 incubated for 18 hrs by UPLC analysis. Format: physicochemical.
A short description of data set [6]: Solubility in 100 mM bistrispropane buffer at pH 6.0 incubated for 18 hrs by UPLC analysis. Format: physicochemical.
Data set [7] in a line: Solubility in 100 mM glycylglycine buffer at pH 5.0 incubated for 18 hrs by UPLC analysis. In kind it is physicochemical.
The nature of data set [8]: Solubility in 100 mM bistrispropane buffer at pH 6.5 incubated for 18 hrs by UPLC analysis. Format: physicochemical.
Data set [9] can be described thus: Solubility in 100 mM bistrispropane buffer at pH 7.0 incubated for 18 hrs by UPLC analysis. Format: physicochemical.
Data set [10] can be described thus: Solubility in 100 mM bistrispropane buffer at pH 7.5 incubated for 18 hrs by UPLC analysis. In kind it is physicochemical.
The nature of data set [11]: Solubility in 100 mM bistrispropane buffer at pH 8.0 incubated for 18 hrs by UPLC analysis. Format: physicochemical.
Data set [12] has as its target T1, Amylin receptor AMY3; CALCR/RAMP3. Nature of the data set: Displacement of [125I]-labeled rat amylin from human amylin receptor expressed in BHK tkts13 whole cells co-expressing RAMP3 incubated for 60 mins by scintillation proximity assay. Format: cell-based.
Data set [13] addresses T2, Calcitonin receptor. Nature of the data set: Agonist activity at human calcitonin receptor expressed in BHK570 cells assessed as increase in intracellular cAMP concentration incubated for 3 hrs in presence of 10% FBS by CRE luciferase reporter gene assay. In kind it is functional, cell-based.

For `CC(C)C[C@H](NC(=O)[C@H](C)NC(=O)[C@H](C)NC(=O)[C@@H](NC(=O)[C@H](CO)NC(=O)[C@H](CC(C)C)NC(=O)[C@H](CCC(=O)O)NC(=O)[C@H](CO)NC(=O)[C@H](C)NC(=O)CC[C@H](NC(=O)CCCCCCCCCCCCCCCCC(=O)O)C(=O)O)[C@@H](C)O)C(=O)NCC(=O)N[C@@H](CCCNC(=N)N)C(=O)N[C@@H](CC(C)C)C(=O)N[C@@H](CO)C(=O)N[C@@H](C)C(=O)N[C@@H](CCC(=O)O)C(=O)N[C@@H](CC(C)C)C(=O)N[C@@H](Cc1cnc[nH]1)C(=O)N[C@@H](CCC(=O)O)C(=O)N[C@@H](CC(C)C)C(=O)N[C@@H](C)C(=O)N[C@H](C(=O)N[C@@H](CC(C)C)C(=O)N1CCC[C@H]1C(=O)N[C@@H](CCCNC(=N)N)C(=O)N[C@H](C(=O)N[C@@H](CCC(=O)O)C(=O)N[C@H](C(=O)NCC(=O)N[C@@H](CO)C(=O)N[C@@H](CCC(=O)O)C(=O)N[C@@H](CO)C(=O)N1CCC[C@H]1C(N)=O)[C@@H](C)O)[C@@H](C)O)[C@@H](C)O` ({C18 diacid-γGlu}-ASELSTAALGRLSAELHELATLPRTETGSESP-NH2), the EC50 in [1] was 0.009 nM; in [2], 0.004 nM; in data set [3] it was 0.026 nM. Also, the solubility at 18 h in data set [4], in data set [5], in data set [6], in data set [7], in data set [8] and in data set [9] was ≥ 200 µM each time. Also, the solubility at 18 h in data set [10] and in [11] was ≥ 200 µM in each case. The IC50 in data set [12] is 0.83 nM.
Consider `CC(C)C[C@H](NC(=O)[C@H](C)NC(=O)[C@H](C)NC(=O)[C@@H](NC(=O)[C@H](CO)NC(=O)[C@H](CC(C)C)NC(=O)[C@H](CCC(=O)O)NC(=O)[C@H](CO)NC(=O)[C@H](C)NC(=O)CC[C@H](NC(=O)CCCCCCCCCCCCCCCCC(=O)O)C(=O)O)[C@@H](C)O)C(=O)NCC(=O)N[C@@H](CCCNC(=N)N)C(=O)N[C@@H](CC(C)C)C(=O)N[C@@H](CO)C(=O)N[C@@H](C)C(=O)N[C@@H](CCC(=O)O)C(=O)N[C@@H](CC(C)C)C(=O)N[C@@H](Cc1cnc[nH]1)C(=O)N[C@@H](CCC(=O)O)C(=O)N[C@@H](CC(C)C)C(=O)N[C@@H](C)C(=O)N[C@H](C(=O)N[C@@H](CC(C)C)C(=O)N1CCC[C@H]1C(=O)N[C@@H](CCCNC(=N)N)C(=O)N[C@H](C(=O)N[C@@H](CCC(=O)O)C(=O)N[C@H](C(=O)NCC(=O)N[C@@H](CO)C(=O)NCC(=O)N1CCC[C@H]1C(=O)N1CCC[C@H]1C(N)=O)[C@@H](C)O)[C@@H](C)O)[C@@H](C)O` ({C18 diacid-γGlu}-ASELSTAALGRLSAELHELATLPRTETGSGPP-NH2), for which the figures for the EC50 in data set [1], in [2] and in data set [3] were 0.08 nM, 0.019 nM and 0.413 nM, respectively. Also, the solubility at 18 h in [4], in data set [5], in data set [6], in [7], in data set [8] and in data set [9] was ≥ 200 µM in each case. Besides, the solubility at 18 h in data set [10] and in data set [11] was ≥ 200 µM each time. The concentration for half-maximal inhibition (IC50) in data set [12] was 22 nM.
Regarding `CC(C)C[C@H](NC(=O)[C@H](C)NC(=O)[C@H](C)NC(=O)[C@@H](NC(=O)[C@H](CO)NC(=O)[C@H](CC(C)C)NC(=O)[C@H](CCC(=O)O)NC(=O)[C@H](CO)NC(=O)[C@H](C)NC(=O)CC[C@H](NC(=O)CCCCCCCCCCCCCCCCC(=O)O)C(=O)O)[C@@H](C)O)C(=O)NCC(=O)N[C@@H](CCCNC(=N)N)C(=O)N[C@@H](CC(C)C)C(=O)N[C@@H](CO)C(=O)N[C@@H](C)C(=O)N[C@@H](CCC(=O)O)C(=O)N[C@@H](CC(C)C)C(=O)N[C@@H](Cc1cnc[nH]1)C(=O)N[C@@H](CCC(=O)O)C(=O)N[C@@H](CC(C)C)C(=O)N[C@@H](C)C(=O)N[C@H](C(=O)N[C@@H](CC(C)C)C(=O)N1CCC[C@H]1C(=O)N[C@@H](CCCNC(=N)N)C(=O)N[C@H](C(=O)N[C@@H](CCC(=O)O)C(=O)N[C@H](C(=O)NCC(=O)N[C@@H](CO)C(=O)N1CCC[C@H]1C(=O)N[C@@H](CO)C(=O)N1CCC[C@H]1C(N)=O)[C@@H](C)O)[C@@H](C)O)[C@@H](C)O` ({C18 diacid-γGlu}-ASELSTAALGRLSAELHELATLPRTETGSPSP-NH2), the EC50 was 0.013 nM in [1], 0.008 nM in data set [2], 0.039 nM in data set [3] and 0.019 nM in data set [13]. Moreover, the solubility at 18 h in [4], in data set [5], in data set [6], in data set [7], in data set [8] and in data set [9] was ≥ 200 µM throughout. In addition, the solubility at 18 h in data set [10] and in data set [11] was ≥ 200 µM throughout.
Consider `CC(C)C[C@H](NC(=O)[C@H](C)NC(=O)[C@H](C)NC(=O)[C@@H](NC(=O)[C@H](CO)NC(=O)[C@H](CC(C)C)NC(=O)[C@H](CCC(=O)O)NC(=O)[C@H](CO)NC(=O)[C@H](C)NC(=O)CC[C@H](NC(=O)CCCCCCCCCCCCCCCCCCC(=O)O)C(=O)O)[C@@H](C)O)C(=O)NCC(=O)N[C@@H](CCCNC(=N)N)C(=O)N[C@@H](CC(C)C)C(=O)N[C@@H](CO)C(=O)N[C@@H](C)C(=O)N[C@@H](CCC(=O)O)C(=O)N[C@@H](CC(C)C)C(=O)N[C@@H](Cc1cnc[nH]1)C(=O)N[C@@H](CCC(=O)O)C(=O)N[C@@H](CC(C)C)C(=O)N[C@@H](CO)C(=O)N[C@H](C(=O)N[C@@H](Cc1ccc(O)cc1)C(=O)N1CCC[C@H]1C(=O)N[C@@H](CCCNC(=N)N)C(=O)N[C@H](C(=O)N[C@@H](CCC(=O)O)C(=O)N[C@H](C(=O)NCC(=O)N[C@@H](CO)C(=O)NCC(=O)N[C@@H](CO)C(=O)N[C@@H](Cc1ccc(O)cc1)C(N)=O)[C@@H](C)O)[C@@H](C)O)[C@@H](C)O` ({C20 diacid-γGlu}-ASELSTAALGRLSAELHELSTYPRTETGSGSY-NH2), for which the values for the EC50 in [1], in data set [2] and in [3] were 0.05 nM, 0.034 nM and 0.064 nM, respectively. Besides, the solubility at 18 h in [4], in [5], in data set [6], in [8], in [9] and in data set [10] was ≥ 200 µM throughout. The solubility at 18 h in data set [11] was ≥ 200 µM. Besides, the IC50 in data set [12] is 0.186 nM.
`CC(C)C[C@H](NC(=O)[C@H](C)NC(=O)[C@H](C)NC(=O)[C@@H](NC(=O)[C@H](CO)NC(=O)[C@H](CC(C)C)NC(=O)[C@H](CCC(=O)O)NC(=O)[C@H](CO)NC(=O)[C@H](C)NC(=O)CC[C@H](NC(=O)CCCCCCCCCCCCCCCCCCC(=O)O)C(=O)O)[C@@H](C)O)C(=O)NCC(=O)N[C@@H](CCCNC(=N)N)C(=O)N[C@@H](CC(C)C)C(=O)N[C@@H](CO)C(=O)N[C@@H](CCC(=O)O)C(=O)N[C@@H](CCC(=O)O)C(=O)N[C@@H](CC(C)C)C(=O)N[C@@H](Cc1cnc[nH]1)C(=O)N[C@@H](CCC(=O)O)C(=O)N[C@@H](CC(C)C)C(=O)N[C@@H](C)C(=O)N[C@H](C(=O)N[C@@H](CC(C)C)C(=O)N1CCC[C@H]1C(=O)N[C@@H](CCCNC(=N)N)C(=O)N[C@H](C(=O)N[C@@H](CCC(=O)O)C(=O)N[C@H](C(=O)NCC(=O)N[C@@H](CO)C(=O)NCC(=O)N[C@@H](CO)C(=O)N1CCC[C@H]1C(N)=O)[C@@H](C)O)[C@@H](C)O)[C@@H](C)O` ({C20 diacid-γGlu}-ASELSTAALGRLSEELHELATLPRTETGSGSP-NH2): the figures for the concentration for a half-maximal effect (EC50) in data set [1], in data set [2] and in [3] were 0.041 nM, 0.025 nM and 0.085 nM, respectively. Also, the solubility at 18 h in data set [4], in data set [5], in [6], in data set [7], in [8] and in data set [9] was ≥ 200 µM in each case. The solubility at 18 h in data set [10] and in data set [11] was ≥ 200 µM in each case.
